Measured values as given in ChEMBL document CHEMBL1124075, “Design, synthesis, and biological activity of a peptide mimic of vasopressin” (J Med Chem, 1988).
Bridge positions count the residues as written; N and C are the ends. Square brackets hold non-standard residues; d marks the D form. Peptide text beside a SMILES is read from it. Mpa = O=C(O)CCS

Legend:
Vasopressin V2 receptor = Vasopressin V2 receptor (Sus scrofa, UniProt P32307); assay: Inhibition of LVP-sensitive adenylate cyclase in a pig renal medullary preparation; format: tissue-based, Renal medulla
Sequence of Vasopressin V2 receptor (P32307 whole entry): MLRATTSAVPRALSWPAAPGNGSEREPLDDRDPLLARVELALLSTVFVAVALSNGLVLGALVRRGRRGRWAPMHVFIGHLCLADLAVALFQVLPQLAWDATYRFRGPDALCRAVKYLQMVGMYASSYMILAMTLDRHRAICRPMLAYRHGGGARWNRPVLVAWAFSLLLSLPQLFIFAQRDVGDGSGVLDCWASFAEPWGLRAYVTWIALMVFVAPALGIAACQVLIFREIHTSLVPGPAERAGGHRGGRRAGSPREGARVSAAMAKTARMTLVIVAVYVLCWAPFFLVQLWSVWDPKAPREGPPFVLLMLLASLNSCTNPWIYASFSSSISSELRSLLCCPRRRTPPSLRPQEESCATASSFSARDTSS

[1] = target: Vasopressin V2 receptor (Sus scrofa) (UniProt P32307); assay: Vasopressin V2 receptor binding affinity measured by competition with tritiated LVP lysine vasopressin in pig renal medullary preparation; conditions: Renal medulla
Sequence of Vasopressin V2 receptor (Sus scrofa) (P32307 whole entry): as above

| Compound | Ki (Vasopressin V2 receptor) [µM] | K bind [1] [µM] |
| --- | --- | --- |
| CC(C)[C@@H]1NC(=O)[C@H](Cc2ccccc2)NC(=O)[C@H](Cc2ccccc2)NC(=O)CCSSC[C@@H](C(=O)N2CCC[C@H]2C(=O)N[C@@H](CCCN=C(N)N)C(=O)NCC(N)=O)NC(=O)[C@H](CC(N)=O)NC1=O ([Mpa]FFVNCPRG-NH2; disulfide 1-6) | 0.01 | 0.1 |
| CC(C)[C@@H]1NC(=O)[C@H](Cc2ccccc2)NC(=O)[C@H](Cc2ccccc2)NC(=O)CCC[C@H](C(=O)N2CCC[C@H]2C(=O)N[C@@H](CCCN=C(N)N)C(=O)NCC(N)=O)NC(=O)[C@H](CC(N)=O)NC1=O | 9.2 | 29 |
| CC(C)[C@@H]1NC(=O)[C@H](Cc2ccccc2)NC(=O)[C@H](Cc2ccccc2)NC(=O)CCC[C@@H](C(=O)N2CCC[C@H]2C(=O)N[C@@H](CCCN=C(N)N)C(=O)NCC(N)=O)NC(=O)[C@H](CC(N)=O)NC1=O | 7 | 15 |
